Where two headings read alike, the source gives them in different places.
Columns and labels:
[1] = target: T1, M2 muscarinic receptor (Rattus norvegicus, UniProt P10980); experiment: [3H]-N-methylscopolamine radioligand binding assay, rat heart membranes
T1 construct: Submandibular glands and heart were isolated and placed in ice cold homogenising buffer; from tissue; host or cells: rat heart membrane homogenate
T1 sequence (P10980 1-466): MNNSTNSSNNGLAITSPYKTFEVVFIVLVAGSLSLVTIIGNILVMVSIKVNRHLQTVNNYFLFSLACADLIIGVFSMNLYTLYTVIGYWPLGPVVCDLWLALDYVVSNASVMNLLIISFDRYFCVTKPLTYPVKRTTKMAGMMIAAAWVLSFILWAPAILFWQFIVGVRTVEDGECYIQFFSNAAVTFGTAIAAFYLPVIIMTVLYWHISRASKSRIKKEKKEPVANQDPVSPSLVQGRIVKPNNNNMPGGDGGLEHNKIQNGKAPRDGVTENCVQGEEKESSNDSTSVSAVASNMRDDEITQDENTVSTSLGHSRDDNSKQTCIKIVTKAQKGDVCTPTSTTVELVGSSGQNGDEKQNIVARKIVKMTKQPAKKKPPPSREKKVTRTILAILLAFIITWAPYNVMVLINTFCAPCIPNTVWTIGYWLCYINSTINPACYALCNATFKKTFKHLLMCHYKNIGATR

[2] = target: T2, M3 muscarinic receptor (Rattus norvegicus, UniProt P08483); experiment: [3H]-N-methylscopolamine radioligand binding assay, rat submandibular gland membranes; design: Receptor Binding Assay Selectivity: reference not given here; settings: for Ki / M3 Pki: rat submandibular gland, [3H]NMS
T2 construct: Submandibular glands and heart were isolated and placed in ice cold homogenising buffer; from tissue; host or cells: rat submandibular gland membrane homogenate
T2 sequence (P08483 whole entry): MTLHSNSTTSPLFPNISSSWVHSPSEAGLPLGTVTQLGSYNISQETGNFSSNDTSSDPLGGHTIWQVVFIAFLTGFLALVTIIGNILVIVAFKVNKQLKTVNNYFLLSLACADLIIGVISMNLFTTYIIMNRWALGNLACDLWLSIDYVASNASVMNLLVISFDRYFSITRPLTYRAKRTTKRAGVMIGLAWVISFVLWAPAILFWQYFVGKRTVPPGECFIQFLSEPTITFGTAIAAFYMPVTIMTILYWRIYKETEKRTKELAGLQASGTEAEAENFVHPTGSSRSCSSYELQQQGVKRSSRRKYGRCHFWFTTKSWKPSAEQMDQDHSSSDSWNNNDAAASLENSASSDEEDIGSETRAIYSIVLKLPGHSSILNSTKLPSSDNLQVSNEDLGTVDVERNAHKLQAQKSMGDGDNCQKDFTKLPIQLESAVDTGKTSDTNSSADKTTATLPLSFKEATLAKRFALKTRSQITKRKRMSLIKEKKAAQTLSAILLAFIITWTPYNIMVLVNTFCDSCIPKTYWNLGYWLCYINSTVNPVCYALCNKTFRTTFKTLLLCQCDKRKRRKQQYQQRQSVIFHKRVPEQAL

[3] = tested on: isolated rat bladder; experiment: tissue or blood; assay type: cell-based
[4] = Table III, read-out: M3 Ki (nm)
[5] = Table II, rat bladder strips, antagonism of carbachol contraction, read-out: Functional Assay KB
[6] = Table III, rat bladder strips, antagonism of carbachol contraction, read-out: Rat Bladder pKB (converted)
[7] = Table III, rat heart, [3H]NMS, read-out: M2 Ki (nm)
[8] = Table IV, rat heart, [3H]NMS, read-out: Receptor Binding Assay (pKi) M2 (converted)
[9] = Table IV, read-out: Receptor Binding Assay (pKi) M3 (converted)

Structure (SMILES)	Ki [2, 4] [nM]	Ki [1, 7] [nM]	Ki [1, 8] [nM]	Ki [2, 9] [nM]	also measured
O=C(N[C@H]1[C@@H]2CN(Cc3ccccc3)C[C@@H]21)C(O)(c1ccccc1)C1CCCCC1 (stereo partly drawn) [Compound No. 22, (1α,5α,6α)-6-N-(3-azabicyclo[3.1.0]hexyl-3-benzyl)-2-cyclohexyl-2-hydroxy-2-phenyl acetamide]	94	–	–	–	Ki ([1]; M2 Ki (nm)): 2260 nM; Ki ([1]; Receptor Binding Assay Ki (nM) M2): 2260 nM; Receptor Binding Assay Selectivity [2]: 24.07; Ki ([2]; Table II, read-out: Receptor Binding Assay Ki (nM) M 3): 94 nM; Kb [3, 5]: 27.5 nM; Kb [3, 6]: 26.9 nM
O=C(NC1C2CN(Cc3cc(F)cc(F)c3)CC21)C(O)(c1ccccc1)C1CCCCC1 (stereo not drawn) [Compound No. 23, (1α,5α,6α)-6-N-(3-azabicyclo[3.1.0]hexyl-3-(3,5-difluorobenzyl))-2-cyclohexyl-2-hydroxy-2-phenyl acetamide]	530	> 1000	–	–	Kb [3, 6]: 2290 nM
O=C(NC1C2CN(Cc3ccc(Br)cc3)CC21)C(O)(c1ccccc1)C1CCCCC1 (stereo not drawn) [Compound No. 24, (1α,5α,6α)-6-N-(3-azabicyclo[3.1.0]hexyl-3-(4-bromobenzyl))-2-cyclohexyl-2-hydroxy-2-phenyl acetamide]	490	> 1000	–	–	Kb [3, 6]: 3800 nM
O=C(NC1C2CN(Cc3c(F)cccc3F)CC21)C(O)(c1ccccc1)C1CCCCC1 (stereo not drawn) [Compound No. 25, (1α,5α,6α)-6-N-(3-azabicyclo[3.1.0]hexyl-3-(2,6-difluorobenzyl))-2-cyclohexyl-2-hydroxy-2-phenyl acetamide]	1700	> 1000	–	–	Kb [3, 6]: 288 nM
O=C(NC1C2CN(CCc3ccc4c(c3)CCO4)CC21)C(O)(c1ccccc1)C1CCCCC1 (stereo not drawn) [Compound No. 28, (1α,5α,6α)-6-N-(3-azabicyclo[3.1.0]hexyl-3-(2-(2,3-dihydrobenzofuran-5-yl)ethyl))-2-cyclohexyl-2-hydroxy-2-phenyl acetamide]	150	> 1000	–	–	–
O=C(NC1C2CN(CCc3ccc4c(c3)OCO4)CC21)C(O)(c1ccccc1)C1CCCCC1 (stereo not drawn) [Compound No. 29, (1α,5α,6α)-6-N-(3-azabicyclo[3.1.0]hexyl-3-(2-(3,4-methylenedioxyphenyl)ethyl))-2-cyclohexyl-2-hydroxy-2-phenyl acetamide]	97	> 1000	–	–	–
O=C(Cc1ccc2c(c1)CCO2)N1CC2C(C1)C2NC(=O)C(O)(c1ccccc1)C1CCCCC1 (stereo not drawn) [Compound No. 30, (1α,5α,6α)-6-N-(3-azabicyclo[3.1.0]hexyl-3-(1-(2,3-dihydrobenzofuran-5-yl)acetyl))-2-cyclohexyl-2-hydroxy-2-phenyl acetamide]	833	–	–	–	M2 pKi ([1]; Table III, rat heart, [3H]NMS): <5; M3 Pki ([2]; Table III): 6.08
O=C(NC1C2CN(CCc3ccc4occc4c3)CC21)C(O)(c1ccccc1)C1CCCCC1 (stereo not drawn) [Compound No. 31, (1α,5α,6α)-6-N-(3-azabicyclo[3.1.0]hexyl-3-(2-(benzofuran-5-yl)ethyl))-2-cyclohexyl-2-hydroxy-2-phenyl acetamide]	233	1590	–	–	–
C#CCN1CC2C(C1)C2NC(=O)C(O)(c1ccccc1)C1CCCCC1 (stereo not drawn) [Compound No. 35, (1α,5α,6α)-6-N-(3-azabicyclo[3.1.0]hexyl-3-(2-propargyl))-2-cyclohexyl-2-hydroxy-2-phenyl acetamide]	429	1180	–	–	Ki ([1]; Table III, rat heart, [3H]NMS, read-out: M2 pKi (converted)): > 1000 nM; Kb [3, 6]: 24.5 nM
CC(C)(C)c1ccc(C(O)(C(=O)NC2C3CN(Cc4ccccc4)CC32)C2CCCCC2)cc1 (stereo not drawn) [Compound No. 55, (1α,5α,6α)-6-N-(3-azabicyclo[3.1.0]hexyl-3-benzyl)-2-cyclohexyl-2-hydroxy-2-(4-tertbutylphenyl)acetamide]	380	> 1000	–	–	–
O=C(N[C@H]1[C@@H]2CN(CCc3ccc4c(c3)CCO4)C[C@@H]21)C(O)(c1ccccc1)C1CCCC1 (stereo partly drawn) [Compound No. 68, (1α,5α,6α)-6-N-(3-azabicyclo[3.1.0]hexyl-3-(2-(2,3-dihydrobenzofuran-5-yl)ethyl))-2-cyclopentyl-2-hydroxy-2-phenyl acetamide]	108	> 1000	–	–	–
Cc1cccc(N2CC3C(C2)C3NC(=O)C(O)(c2ccccc2)C2CCCC2)n1 (centres unmarked) [Compound No. 69]	1420	> 10000	–	–	M2 pKi ([1]; Table III, rat heart, [3H]NMS): <5; M3 Pki ([2]; Table III): 5.85
O=C(Cc1ccc2c(c1)CCO2)N1CC2C(C1)C2NC(=O)C(O)(c1ccccc1)C1CCCC1 (stereo not drawn) [Compound No. 70, (1α,5α,6α)-6-N-(3-azabicyclo[3.1.0]hexyl-3-(1-(2,3-dihydrobenzofuran-5-yl)acetyl))-2-cyclopentyl-2-hydroxy-2-phenyl acetamide]	750	> 10000	–	–	M2 pKi ([1]; Table III, rat heart, [3H]NMS): <5; M3 Pki ([2]; Table III): 6.12
O=C(N[C@H]1[C@@H]2CNC[C@@H]21)C(O)(c1ccccc1)C1CCCCC1 (stereo partly drawn) [Compound No. 85, (1α,5α,6α)-6-N-(3-azabicyclo[3.1.0]hexyl)-2-cyclohexyl-2-hydroxy-2-phenylacetamide]	–	–	> 1000	> 1000	–
O=C(NC1C2CNCC21)C(O)(c1ccc(F)cc1)C1CCCCC1 (stereo not drawn) [Compound No. 86, (1α,5α,6α)-6-N-(3-azabicyclo-[3.1.0]hexyl)-2-cyclohexyl-2-hydroxy-2-(4-Fluorophenyl)acetamide]	–	–	> 1000	> 1000	–
COc1ccc(C(O)(C(=O)NC2C3CNCC32)C2CCCCC2)cc1 (stereo not drawn) [Compound No. 87, (1α,5α,6α)-6-N-(3-azabicyclo-[3.1.0]hexyl)-2-cyclohexyl-2-hydroxy-2-(4-methyoxyphenyl)acetamide]	–	–	> 1000	> 1000	–
Cc1ccc(C(O)(C(=O)N[C@H]2[C@@H]3CNC[C@@H]32)C2CCCCC2)cc1 (stereo partly drawn) [Compound No. 88, (1α,5α,6α)-6-N-(3-azabicyclo-[3.1.0]hexyl)-2-cyclohexyl-2-hydroxy-2-(4-methylphenyl)acetamide]	–	–	> 1000	> 1000	–
O=C(NC1C2CNCC21)C(O)(c1ccccc1)C1CCCC1 (stereo not drawn) [Compound No. 89, (1α,5α,6α)-6-N-(3-azabicyclo-[3.1.0]hexyl)-2-cyclopentyl-2-hydroxy-2-phenylacetamide]	–	–	> 1000	> 1000	–
O=C(N[C@H]1[C@@H]2CNC[C@@H]21)C(O)(c1ccccc1)C1CCCCCC1 (stereo partly drawn) [Compound No. 90, (1α,5α,6α)-6-N-(3-azabicyclo[3.1.0]hexyl)-2-cycloheptyl-2-hydroxy-2-phenylacetamide]	–	–	> 1000	363	–
O=C(N[C@H]1[C@@H]2CNC[C@@H]21)C(O)(c1ccccc1)C1CCC1 (stereo partly drawn) [Compound No. 91, (1α,5α,6α)-6-N-(3-azabicyclo[3.1.0]hexyl)-2-cyclobutyl-2-hydroxy-2-phenylacetamide]	–	–	100000	2750	–
O=C(N[C@H]1[C@@H]2CNC[C@@H]21)C(O)(c1ccccc1)C1CC1 (stereo partly drawn) [Compound No. 92, (1α,5α,6α)-6-N-(3-azabicyclo-[3.1.0]hexyl)-2-cyclopropyl-2-hydroxy-2-phenylacetamide]	–	–	> 10000	> 10000	–
CC(C)(C)OC(=O)N(CCCCOC(=O)C(O)(c1ccc(F)cc1)c1ccc(F)cc1)C1C2CNCC21 (stereo not drawn) [Compound No. 95, (1α,5α,6α)-4-[6-N-(3-azabicyclo[3.1.0]hexyl)]-N-(tert-butyloxycarbonyl)butyl-1-[2-hydroxy-2,2-bis-(4-fluorophenyl)]acetate]	–	–	> 1000	> 1000	–
CCCOC(C(=O)OCCCCN(C(=O)OC(C)(C)C)C1C2CNCC21)(c1ccc(F)cc1)c1ccc(F)cc1 (stereo not drawn) [Compound No. 96, (1α,5α,6α)-4-[6-N-(3-azabicyclo-[3.1.0]hexyl)]-N-(tert-butyloxycarbonyl)butyl-1-[2-propyloxy-2,2-bis-(4-fluorophenyl)]acetate]	–	–	> 1000	> 1000	–
O=C(N[C@H]1[C@@H]2CNC[C@@H]21)C(c1ccccc1)c1ccccc1 [Compound No. 97, (1α,5α,6α)-6N-(3-azabicyclo-[3.1.0]hexyl)-2,2-diphenyl acetamide]	–	–	> 1000	> 1000	–
COC(C(=O)NC1C2CNCC21)(c1ccccc1)C1CCCCC1 (stereo not drawn) [Compound No. 98, (1α,5α,6α)-6N-(3-azabicyclo-[3.1.0]hexyl)-2-cyclohexyl-2-methoxy-2-phenyl acetamide]	–	–	> 1000	> 1000	–
CCN(CC)CC#CCOC(=O)C(O)(c1ccccc1)C1CCCCC1 (centres unmarked) [Oxybutynin, oxybutynin, reference compound]	–	–	–	–	Kb [3, 5]: 2 nM
Cc1ccc(O)c([C@H](CCN(C(C)C)C(C)C)c2ccccc2)c1 [Tolterodine, tolterodine, reference compound]	–	–	–	–	Kb ([3]; Rattus norvegicus, read-out: Functional Assay KB (nM)): 2 nM; Kb ([3]; Rattus norvegicus, read-out: Rat Bladder pKB (converted)): 1e+07 nM

Reference: patent US7232835B2, “3,6-Disubstituted azabicyclo derivatives as muscarinic receptor antagonists” (Ranbaxy Laboratories Limited, priority 2002, dated 2007)
